Assay results as given in patent US11840686B2, “Modulation of prekallikrein (PKK) expression” (Ionis Pharmaceuticals, Inc., priority 2013, dated 2023).
Strand notation (5' to 3'): a small letter for the sugar, then the base; units joined by * are phosphorothioate-linked, units joined directly phosphodiester-linked; [ ] holds rarer units or linkages, { } end groups; capitals alone tell only the bases. e = 2'-O-(2-methoxyethyl) (MOE); [5mC] = 5-methylcytosine; d = 2'-deoxy (DNA)

What was measured:
human PKK mRNA [1] = experiment: Antisense inhibition of human PKK mRNA in HepaRG cells, 5,000 nM (Example 2); assay type: cell-based
How it was run: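 Percent inhibition of PKK mRNA is reported relative to untreated cells, after adjustment for total RNA by RIBOGREEN. Gapmers of 16–20 nucleosides with 2′-MOE wings were delivered at 5,000 nM by electroporation into HepaRG cells and left for roughly 24 hours before RNA isolation.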

human PKK mRNA [2] = experiment: Dose-dependent antisense inhibition of human PKK in HepaRG cells, 0.19-5.00 uM (Example 5); assay type: cell-based; settings: for percent inhibition of PKK mRNA, 0.19 μM: 0.19 μM antisense oligonucleotide; for percent inhibition of PKK mRNA, 0.56 μM: 0.56 μM antisense oligonucleotide; for percent inhibition of PKK mRNA, 1.67 μM: 1.67 μM antisense oligonucleotide; for percent inhibition of PKK mRNA, 5.00 μM: 5.00 μM antisense oligonucleotide
How it was run: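 HepaRG cells (20,000/well) were electroporated with antisense oligonucleotide at 0.19, 0.56, 1.67 and 5.00 μM and treated for about 16 hours. PKK mRNA was quantified by qRT-PCR with primer probe set RTS3454, normalised to RIBOGREEN total RNA, and IC50 was derived per oligonucleotide.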

[3] = HepaRG cells, 5,000 nM antisense oligonucleotide, 5-10-5 gapmers, Table 17
[4] = HepaRG cells, electroporation, approximately 16 hours, Table 40
[5] = 4 point dose response, HepaRG cells, Table 40
[6] = HepaRG cells, electroporation, approximately 16 hours, Table 37
[7] = HepaRG cells, electroporation, approximately 16 hours, Table 38
[8] = 4 point dose response, HepaRG cells, Table 38
[9] = Table 34, HepaRG, electroporation, ~16 h
[10] = HepaRG cells, electroporation, approximately 16 hours, Table 39

“547009 (eA*eA*eT*eT*eG*dG*dT*dG*dG*dT*dG*dG*dG*dA*dT*eT*eG*eG*eT*eG; antisense) [compound 547009]” was tested, and the “% inhibition” value (human PKK mRNA [1]; [3]) was 73%, the “percent inhibition of PKK at 0.19 μM” value (human PKK mRNA [2]; [4]) was 0% and the “percent inhibition of PKK at 0.56 μM” value (human PKK mRNA [2]; [4]) was 9%. The “percent inhibition of PKK at 1.67 μM” value (human PKK mRNA [2]; [4]) was 21%, the “percent inhibition of PKK at 5.00 μM” value (human PKK mRNA [2]; [4]) was 63% and the IC50 (human PKK mRNA [2]; [5]) was 3600 nM.

For “546832 (e[5mC]*eT*e[5mC]*eT*eA*dA*d[5mC]*dA*dG*dT*dA*dT*d[5mC]*dA*d[5mC]*eT*eG*eT*eA*e[5mC]; antisense) [compound 546832]”, the “% inhibition” value (human PKK mRNA [1]; Table 13, human PKK mRNA in HepaRG cells, 5-10-5 gapmers) was 88%, the “percent inhibition of PKK at 0.19 μM” value (human PKK mRNA [2]; [6]) was 19% and the “percent inhibition of PKK at 0.56 μM” value (human PKK mRNA [2]; [6]) was 38%. The “percent inhibition of PKK at 1.67 μM” value (human PKK mRNA [2]; [6]) was 70%, the “percent inhibition of PKK at 5.00 μM” value (human PKK mRNA [2]; [6]) was 95% and the IC50 (human PKK mRNA [2]; 4 point dose response, HepaRG cells, Table 37) was 800 nM. For the same substance, the “percent inhibition of PKK mRNA, 0.19 μM” value (human PKK mRNA [2]; HepaRG cells) was 36%, the “percent inhibition of PKK mRNA, 0.56 μM” value (human PKK mRNA [2]; HepaRG cells) was 49% and the “percent inhibition of PKK mRNA, 1.67 μM” value (human PKK mRNA [2]; HepaRG cells) was 85%. For the same substance, the “percent inhibition of PKK mRNA, 5.00 μM” value (human PKK mRNA [2]; HepaRG cells) was 97% and the IC50 (human PKK mRNA [2]; HepaRG cells, 0.19-5.00 μM) was 400 nM.

“547585 (eA*eA*e[5mC]*eA*eG*dT*dA*dT*d[5mC]*dA*d[5mC]*dT*dG*dT*d[5mC]*e[5mC]*eT*eA*eT*eA; antisense) [compound 547585]” was tested, and the “% inhibition” value (human PKK mRNA [1]; human PKK mRNA in HepaRG cells, 5-10-5 gapmers, Table 14) was 85%, the “percent inhibition of PKK at 0.19 μM” value (human PKK mRNA [2]; [7]) was 42% and the “percent inhibition of PKK at 0.56 μM” value (human PKK mRNA [2]; [7]) was 57%. The “percent inhibition of PKK at 1.67 μM” value (human PKK mRNA [2]; [7]) was 70%, the “percent inhibition of PKK at 5.00 μM” value (human PKK mRNA [2]; [7]) was 95% and the IC50 (human PKK mRNA [2]; [8]) was 400 nM. For the same substance, the “percent inhibition of PKK mRNA, 0.19 μM” value (human PKK mRNA [2]; HepaRG cells) was 0%, the “percent inhibition of PKK mRNA, 0.56 μM” value (human PKK mRNA [2]; HepaRG cells) was 46% and the “percent inhibition of PKK mRNA, 1.67 μM” value (human PKK mRNA [2]; HepaRG cells) was 89%. The “percent inhibition of PKK mRNA, 5.00 μM” value (human PKK mRNA [2]; HepaRG cells) was 93% and the IC50 (human PKK mRNA [2]; HepaRG cells, 0.19-5.00 μM) was 800 nM.

For “547464 (antisense eG*e[5mC]*eT*eT*eG*dT*dG*dT*d[5mC]*dA*d[5mC]*d[5mC]*dT*dT*dT*eG*eG*eA*eA*eG) [compound 547464]”, the “% inhibition” value (human PKK mRNA [1]; Table 9 experiment, HepaRG cells, 20,000 cells per well, electroporation with 5,000 nM antisense oligonucleotide, approx. 24 hours, PKK mRNA by RT-PCR (RTS3454), relative to untreated control cells) was 95%, the “% inhibition” value (human PKK mRNA [1]; Table 10 experiment, HepaRG cells, 20,000 cells per well, electroporation with 5,000 nM antisense oligonucleotide, approx. 24 hours, PKK mRNA by RT-PCR (RTS3454), relative to untreated control cells) was 84% and the “percent inhibition of PKK at 0.19 μM” value (human PKK mRNA [2]; [9]) was 21%. For the same substance, the “percent inhibition of PKK at 0.56 μM” value (human PKK mRNA [2]; [9]) was 52%, the “percent inhibition of PKK at 1.67 μM” value (human PKK mRNA [2]; [9]) was 67% and the “percent inhibition of PKK at 5.00 μM” value (human PKK mRNA [2]; [9]) was 97%. The IC50 (human PKK mRNA [2]; Table 34, PKK mRNA, HepaRG, electroporation, ~16 h) was 600 nM.

In the case of “546410 (eG*eA*e[5mC]*eT*eT*dT*dG*dG*dG*dT*dT*dT*d[5mC]*dT*dG*e[5mC]*e[5mC]*eA*eA*e[5mC]; antisense) [compound 546410]”, the “% inhibition” value (human PKK mRNA [1]; HepaRG cells, electroporation, 5,000 nM antisense oligonucleotide, approx. 24 hours, primer probe set RTS3454, relative to untreated control cells, Table 12) is reported as 83%, the “percent inhibition of PKK at 0.19 μM” value (human PKK mRNA [2]; [7]) is reported as 13% and the “percent inhibition of PKK at 0.56 μM” value (human PKK mRNA [2]; [7]) is reported as 43%. The “percent inhibition of PKK at 1.67 μM” value (human PKK mRNA [2]; [7]) was 52%, the “percent inhibition of PKK at 5.00 μM” value (human PKK mRNA [2]; [7]) was 75% and the IC50 (human PKK mRNA [2]; [8]) was 1200 nM.

In the case of “547780 (antisense e[5mC]*e[5mC]*e[5mC]*e[5mC]*eT*d[5mC]*dT*dT*dA*dA*dA*dT*dA*dG*d[5mC]*eA*e[5mC]*eA*eT*eG) [compound 547780]”, the “% inhibition” value (human PKK mRNA [1]; [3]) is reported as 67%, the “percent inhibition of PKK at 0.19 μM” value (human PKK mRNA [2]; [4]) is reported as 0% and the “percent inhibition of PKK at 0.56 μM” value (human PKK mRNA [2]; [4]) is reported as 10%. The “percent inhibition of PKK at 1.67 μM” value (human PKK mRNA [2]; [4]) was 36%, the “percent inhibition of PKK at 5.00 μM” value (human PKK mRNA [2]; [4]) was 55% and the IC50 (human PKK mRNA [2]; [5]) was 3900 nM.

With “547341 (antisense eG*eA*e[5mC]*eT*e[5mC]*d[5mC]*dT*d[5mC]*dT*d[5mC]*dA*dT*dA*dT*d[5mC]*eA*eA*e[5mC]*eT*e[5mC]) [compound 547341]” the “% inhibition” value (human PKK mRNA [1]; HepaRG cells, electroporation with 5,000 nM antisense oligonucleotide, approximately 24 hours, PKK mRNA by RT-PCR (RTS3454), relative to untreated control cells, Table 6 experiment) was 87%, the “percent inhibition of PKK at 0.19 μM” value (human PKK mRNA [2]; [10]) was 36% and the “percent inhibition of PKK at 0.56 μM” value (human PKK mRNA [2]; [10]) was 58%. The “percent inhibition of PKK at 1.67 μM” value (human PKK mRNA [2]; [10]) was 91%, the “percent inhibition of PKK at 5.00 μM” value (human PKK mRNA [2]; [10]) was 95% and the IC50 (human PKK mRNA [2]; 4 point dose response, HepaRG cells, Table 39) was 300 nM. For the same substance, the “percent inhibition of PKK mRNA, 0.19 μM” value (human PKK mRNA [2]; HepaRG cells) was 45%, the “percent inhibition of PKK mRNA, 0.56 μM” value (human PKK mRNA [2]; HepaRG cells) was 44% and the “percent inhibition of PKK mRNA, 1.67 μM” value (human PKK mRNA [2]; HepaRG cells) was 81%. For the same substance, the “percent inhibition of PKK mRNA, 5.00 μM” value (human PKK mRNA [2]; HepaRG cells) was 95% and the IC50 (human PKK mRNA [2]; HepaRG cells, 0.19-5.00 μM) was 600 nM.
